Experiment [1] deals with HCT-116 MTAP(-/-) deficient cells. The experiment in a line: Inhibition of proliferation of HCT-116 MTAP(-/-) deficient cells (Cell-Titer Glo). Type of experiment: cell-based. The settings on record: Homo sapiens, HCT-116, 192 h, 8 days. On the procedure:
Test 1: Compound's inhibitory activity on proliferation of HCT-116 MTAP(-/-) deficient cells.
Materials and Cells: HCT-116 MTAP(-/-) deficient cells obtained from Kyinno Bio (China); RPMI-1640 medium, fetal bovine serum, and penicillin-streptomycin purchased from Thermo Fisher Scientific (America); 384-well plates from PerkinElmer (America); Cell-Titer Glo assay kit from Promega (America).
Cell Culture: HCT116 MTAP(-/-) deficient cells were cultured in RPMI 1640 medium containing 10% fetal bovine serum and 1% penicillin-streptomycin at 37°C, 5% CO2. Only cells in logarithmic growth phase were used for experiments.
Cell Proliferation Inhibition Assay: The compound's inhibitory activity on HCT-116 MTAP(-/-) deficient cells was assessed using the Cell-Titer Glo assay kit. Adjusting cell concentration, 40 µL was seeded into a 384-well plate and cultured overnight at 37°C, 5% CO2. Each well received 40 nL of the compound, achieving concentrations from 0 to 10,000 nM (starting concentration 10,000 nM, 3-fold dilution, 10 points), with 0.1% DMSO. The cell plate was incubated for 8 days at 37°C, 5% CO2. Cell-Titer Glo reagent (40 µL) was added to measure cell viability.

The test system of experiment [2] is HCT-116 MTAP wild-type cells. The experiment in a line: Inhibition of proliferation of HCT-116 MTAP wild-type cells (Cell-Titer Glo). Type of experiment: cell-based. The settings on record: Homo sapiens, HCT-116, 192 h, 8 days. On the procedure: Test 2: Compound's inhibitory activity on proliferation of HCT-116 MTAP wild-type cells.
Materials and Cells: HCT-116 MTAP wild-type cells obtained from Kyinno Bio (China); RPMI-1640 medium, fetal bovine serum, and penicillin-streptomycin purchased from Thermo Fisher Scientific (America); 384-well plates from PerkinElmer (America); Cell-Titer Glo assay kit from Promega (America).
Cell Culture: HCT116 MTAP wild-type cells were cultured in RPMI 1640 medium containing 10% fetal bovine serum and 1% penicillin-streptomycin at 37°C, 5% CO2. Only cells in logarithmic growth phase were used for experiments.
Cell Proliferation Inhibition Assay: The compound's inhibitory activity on HCT-116 MTAP wild-type cells was assessed using the Cell-Titer Glo assay kit. Adjusting cell concentration, 40 µL was seeded into a 384-well plate and cultured overnight at 37°C, 5% CO2. Each well received 40 nL of the compound, achieving concentrations from 0 to 10,000 nM (starting concentration 10,000 nM, 3-fold dilution, 10 points), with 0.1% DMSO. The cell plate was incubated for 8 days at 37°C, 5% CO2. Cell-Titer Glo reagent (40 µL) was added to measure cell viability.

One may read the IC50 as the concentration needed to halve the response being measured. Low readings indicate greater potency in that assay, high ones weaker potency in that assay. Consider `C[C@H]1OC[C@@H](N(C)C(=O)c2ccc3nc(N)c4cncn4c3c2)c2cnc(C(F)(F)F)cc21` [Example 32, 4-amino-N-methyl-N-((1R,4S)-1-methyl-7-(trifluoromethyl)-3,4-dihydro-1H-pyrano[4,3-c]pyridin-4-yl)imidazo[1,5-a]quinoxaline-8-carboxamide], for which the IC50 was 25.7 nM in experiment [1] and 1410 nM in experiment [2].

For the compound `Cc1cc(C(=O)N(C)[C@@H]2COc3cc(C(F)(F)F)ccc32)cc2c1nc(N)c1cncn12` [Example 37, (S)-4-amino-N,6-dime thyl-N-(6-(trifluoromethyl)-2,3-dihydrobenzofuran-3-yl)imidazo[1 ,5-a]quinoxaline-8-car boxamide], the IC50 in experiment [1] is above 3000 nM; in experiment [2], above 10000 nM.

Regarding `CN(C(=O)c1ccc2nc(N)c3cc(F)cn3c2c1)[C@@H]1COc2cc(C(F)(F)F)ccc21` [Example 42, (S)-4-amino-2-fluoro-N-methyl-N-(6-(trifluoromethyl)-2,3-dihydrobenzofuran-3-yl)pyrr olo[1,2-a]quinoxaline-8-carboxamide], the IC50 worked out at 660 nM in experiment [1] and 5460 nM in experiment [2].

Consider `CN(C(=O)c1cc2c(cc1F)nc(N)c1cncn12)[C@@H]1COc2cc(-c3cscn3)ccc21` [Example 46, (S)-4-amino-7-fluoro-N-methyl-N-(6-(thiazol-4-yl)-2,3-dihydrobenzofuran-3-yl)imidaz o[1,5-a]quinoxaline-8-carboxamide], for which the figures for the IC50 in experiment [1] and in experiment [2] were 52.2 nM and above 10000 nM, respectively.

With `CN(C(=O)c1ccc2nc(N)c3nncn3c2c1)[C@@H]1COc2cc(C(F)(F)F)ccc21` [Example 48, (S)-4-amino-N-methy 1-N-(6-(trifluoromethy 1)-2,3-dihydrobenzofuran-3-yl)-[1,2,4]triazo lo[4,3-a]quinoxaline-8-carboxamide], the IC50 in experiment [1] and in experiment [2] was above 3000 nM each time.

Regarding `CN(C(=O)c1ccc2nc(N)n3cncc3c2c1)[C@@H]1COc2cc(C(F)(F)F)ccc21` [Example 49, (S)-5-amino-N-methy 1-N-(6-(trifluoromethy 1)-2,3-dihydrobenzofuran-3-yl)imidazo[1,5-c]quinazoline-9-carbo xamide], the 50% inhibitory concentration (IC50) in experiment [1] is 589 nM; in experiment [2], above 10000 nM.

`CC1OC[C@@H](N(C)C(=O)c2cc3c(cn2)nc(N)c2cncn23)c2ccc(C(F)(F)F)cc21` (stereo partly drawn) [Example 50, 4-amino-N-methyl-N-((4S)-1-methyl-7-(trifluoromethyl)isochroman-4-yl)imidazo[1,5-a]pyrido[3,4-e]pyrazine-8-carboxamide]: the IC50 is 4.2 nM in experiment [1] and 196 nM in experiment [2].

Turning to `CN(C(=O)c1ccc2nc(N)c3cncn3c2c1)[C@H]1COc2cc(C(F)(F)F)ccc21` [Example 51, (R)-4-amino-N-methy 1-N-(6-(trifluoromethy 1)-2,3-dihydrobenzofuran-3-yl)imidazo[1,5-a]quinoxaline-8-carbo xamide], the IC50 was 213 nM in experiment [1] and 5860 nM in experiment [2].

For `CN(C(=O)c1ccc2nc(N)c3cncn3c2c1)[C@@H]1COc2cc(CF)ccc21` [Example 52, (S)-4-amino-N-(6-(fluoromethyl)-2,3-dihydrobenzofuran-3-yl)-N-methylimidazo[1,5-a] quinoxaline-8-carbox amide], the IC50 in experiment [1] is 123 nM; in experiment [2], above 10000 nM.

`CN(C(=O)c1ccc2nc(N)c3cncn3c2c1)[C@@H]1COc2cc(C(N)=O)ccc21` [Example 53, (S)4-amino-N-(6-carbamoyl-2,3-dihydrobenzofuran-3-yl)-N-met hylimidazo[1,5-a]quin oxaline-8-carboxamide]: the IC50 in experiment [1] is above 3000 nM; in experiment [2] it was above 10000 nM.

As for `CN(C(=O)c1ccc2nc(N)c3cncn3c2c1)[C@@H]1COc2cc(N)ccc21` [Example 54, (S)-4-amino-N-(6-amino-2,3-dihydrobenzof uran-3-yl)-N-methyli midazo[1,5-a]quinoxa line-8-carboxamide], the IC50 in experiment [1] was 2500 nM; in experiment [2] it was above 10000 nM.

In the case of `CN(C(=O)c1cc2c(cc1F)nc(N)c1cncn12)[C@@H]1COc2cc(OC(F)(F)F)ccc21` [Example 57, (S)-4-amino-7-fluoro-N-methyl-N-(6-(trifluoromethoxy)-2,3-dihydrobenzofuran-3-yl)i midazo[1,5-a]quinoxa line-8-carboxamide], the results for the IC50 in experiment [1] and in experiment [2] were 10.5 nM and 1870 nM, respectively.

`CN(C(=O)c1ccc2nc(N)c3nnnn3c2c1)[C@@H]1COc2cc(C(F)(F)F)ccc21` [Example 58, (S)-4-amino-N-methyl-N-(6-(trifluoromethyl)-2,3-dihydrobenzofuran-3-yl)tetrazolo[1,5-a]quinoxaline-8-carboxamide]: the IC50 in experiment [1] was above 3000 nM; in experiment [2], above 10000 nM.

Take `Nc1nc2cc(F)c(C(=O)N(C3CC3)C3CCOc4cc(-c5cncc(C(F)(F)F)c5)cnc43)cc2n2cncc12` (stereo not shown) [Example 59, 4-amino-N-cyclopropyl-7-fluoro-N-(7-(5-(trifluoromethyl)pyridin-3-yl)-3,4-dihydro-2H-pyrano[3,2-b]pyridin-4-yl)imidazo [1,5-a]quinoxaline-8-carboxamide]: the IC50 in experiment [1] was 711 nM; in experiment [2], above 10000 nM.

Turning to `CN(C(=O)c1cc2c(cc1F)nc(N)c1cncn12)[C@@H]1CCOc2cc(C(F)(F)F)ccc21` [Example 60, (R)-4-amino-7-fluoro-N-methyl-N-(7-(trifluoromethyl)chroman-4-yl)imidazo[1,5-a]qui noxaline-8-carboxamide], the results for the IC50 in experiment [1] and in experiment [2] were 66.8 nM and 7070 nM, respectively.

For `CC1OC[C@@H](N(C)C(=O)c2cc3c(cc2Cl)nc(N)c2cncn23)c2ccc(F)cc21` (stereo partly drawn) [Example 61, 4-amino-7-chloro-N-( (4S)-7-fluoro-1-methylisochroman-4-yl)-N-methylimidazo[1,5-a] quinoxaline-8-carbox amide], the half-inhibitory concentration (IC50) in experiment [1] stood at 7.7 nM; in experiment [2], 882 nM.

For the compound `CC1OC[C@@H](N(C)C(=O)c2cc3c(cn2)nc(N)c2cncn23)c2ccc(F)cc21` (stereo partly drawn) [Example 62, 4-amino-N-((4S)-7-fluoro-1-methylisochroman-4-yl)-N-methyli midazo[1,5-a]pyrido[3,4-e]pyrazine-8-carb oxamide], the IC50 in experiment [1] worked out at 19.7 nM; in experiment [2] it was 3710 nM.

On to `CN(C(=O)c1cc2c(cc1Cl)nc(N)c1cncn12)[C@@H]1COc2ccc(F)cc21` [Example 63, (S)-4-amino-7-chloro-N-(5-fluoro-2,3-dihydrobenzofuran-3-yl)-N-methylimidazo[1,5-a] quinoxaline-8-carbox amide], for which the results for the IC50 in experiment [1] and in experiment [2] were 46.8 nM and 3260 nM, respectively.

As to `Cc1ncn2c1c(N)nc1ccc(C(=O)N(C)[C@@H]3COc4ccc(F)cc43)cc12` [Example 64, (S)-4-amino-N-(5-fluoro-2,3-dihydrobenzofuran-3-yl)-N,3-dimet hylimidazo[1,5-a]quin oxaline-8-carboxamide], the IC50 in experiment [1] was 278 nM; in experiment [2], above 20000 nM.

Turning to `N#Cc1ccc2c(c1)OCC2N(C(=O)c1ccc2nc(N)c3cncn3c2c1)C1CC1` (stereo not shown) [Example 65, 4-amino-N-(6-cyano-2,3-dihydrobenzofuran-3-yl)-N-cyclopropyl imidazo[1,5-a]quinox aline-8-carboxamide], the values for the IC50 in experiment [1] and in experiment [2] were 95.3 nM and 5950 nM, respectively.

In the case of `CN(C(=O)c1ccc2nc(N)c3cncn3c2c1)[C@@H]1COc2ccc(F)cc21` [Example 66, (S)-4-amino-N-(5-fluoro-2,3-dihydrobenzofuran-3-yl)-N-methyli midazo[1,5-a]quinoxa line-8-carboxamide], the half-inhibitory concentration (IC50) in experiment [1] was 2260 nM; in experiment [2] it was above 20000 nM.

`Nc1nc2cnc(C(=O)N(C3CC3)C3COc4cc(C(F)(F)F)ccc43)cc2n2cncc12` (stereo not shown) [Example 67, 4-amino-N-cyclopropyl-N-(6-(trifluoromethyl)-2,3-dihydrobenzof uran-3-yl)imidazo[1,5-a]pyrido[3,4-e]pyrazine-8-carboxamide]: the values for the IC50 in experiment [1] and in experiment [2] were 35.6 nM and 3640 nM, respectively.

For the compound `CN(C(=O)c1ccc2nc(N)c3cncn3c2c1)[C@@H]1COc2cc(F)ccc21` [Example 68, (S)-4-amino-N-(6-fluoro-2,3-dihydrobenzofuran-3-yl)-N-methyli midazo[1,5-a]quinoxa line-8-carboxamide], the IC50 in experiment [1] came to 382 nM; in experiment [2] it was 8570 nM.
